# Tests used:
# [1] = Metabolic stability, liver microsomes; assay type: in vitro ADME; details: Rat, 37 °C, read-out: Liver microsomes t1/2 (converted)
# PIM3 = PIM3 (Homo sapiens, UniProt Q86V86); assay: KINOMEscan Kd (DiscoverX); assay type: binding
# [2] = system: Phospho-S6 in MOLM-16 tumors; assay: PK/PD: phospho-S6 in MOLM-16 tumors after dosing; assay type: in vivo, SCID/beige mice; details: 25 mg/kg BID for 3 days
# Method: At the end of the experiment, mice were sacrificed 4, 8 and 24h after the last dose (three mice per time point). Plasma and tumor samples were collected and stored at −80°C for further analysis.
# SKNO-1 = assay: MTS viability assay, 72 h; details: SKNO-1, 72 h
# Method: (§2) 15-25 ×10^3 of MV-4-11, MOLM-13, MOLM-14, MOLM-16, KG-1, Eol-1, SKM-1, PL-21, GDM-1, SKNO-1, RS4;11, Kasumi-3 and Kasumi-6 cells were seeded in 150 μL of culture medium onto individual wells in a 96 well plates, in triplicates. On the same day, 50 μL of medium containing tested inhibitor was added to the wells. Each compound was tested at 8 concentrations, in triplicates. As a negative control, the medium containing 0.1% DMSO was used. […] Staurosporine was used at 10 μM as a positive control. One the day of drug addition, basal signal from untreated cells was measured from in triplicate to determine time zero (T0). […] GI50 and LC50 values were extrapolated from a variable (four-parameter) dose-response curve fitted in GraphPad Prism.
# [3] = system: S6 phosphorylation (Ser235/236) in KG-1 cells; assay: S6 phosphorylation, flow cytometry; assay type: cell-based; details: Homo sapiens; KG-1, 4 hours
# Method: For biomarker experiments, MV-4-11, MOLM-13 and KG-1 cells were seeded at 1 × 10^6 in 3 ml of medium, while MOLM-16 cells were seeded at 1 × 10^6 in 4 ml of medium and left for ~ 18 hours (37°C, 5% CO2). […] Final concertation of DMSO was 0.1%. After 4h of incubation cells were harvested, centrifuged and washed with ice-cold PBS. Cells were fixed with 4% paraformaldehyde buffered with PBS and permeabilized with 90% methanol. Cells were incubated with primary antibody (S6 phopspho-Ser235/236, Cell Signaling, Cat. No: 4856) diluted 1:200 in 0.5% BSA/PBS. […] Cells were analyzed on Flow Cytometer BD LSR II with an excitation wavelength of 488 nm and peak emission 590 nm.
# MOLM-16 (FLT3-WT) tumor = assay: MOLM-16 subcutaneous xenograft, single agent; assay type: in vivo, SCID/beige mice
# Source text: All animals were handled in strict accordance with good animal practice as defined by the relevant national and local animal welfare bodies. SCID and SCID/beige C.B-17 mice were provided by Harlan Laboratories or Charles River Laboratories, and were maintained in pathogen free conditions. For the xenograft experiments, age-matched (9-11 weeks old) females were used. 5×10^6 of MV-4-11 or MOLM-16 cells were suspended in a mixture (1:1, v:v) of PBS with Matrigel (BD Biosciences,) and injected subcutaneously (sc), in a total volume of 100 μL, above the groin on the right hind limb. For MOLM-13 and KG-1 cells, a mixture (3:1, v:v) of PBS and Matrigel HC (BD Bioscience,) was used to inject 5 × 10^6 of cell per mouse subcutaneously (sc), in a total volume of 100 μL. When tumors reached 100-130 mm^3, mice were randomized into uniform groups (6-9 mice per group) and subsequently administered the compound. […] At the end of the experiment, mice were anesthetized with isofluran and blood samples for total cell counts and biochemistry were obtained by retro-orbital bleeding. […] 5×10^6 cells suspended in a mixture (3:1, v:v) of PBS and Matrigel were injected as described above. When the tumor volume reached ~120 mm^3, mice were randomized into uniform groups (5 mice per group) and the compound then administered. […] Tumor volume was monitored every second day and calculated using the formula: TV = (a^2×b)/2, where “a” is the short axis in millimeters, and “b” is the long axis in millimeters. Body weight was assessed every day.
# [4] = Pharmacokinetics after oral and intravenous administration; assay type: in vivo, rats (Sprague Dawley); details: male, plasma, Rat, Dose PO/IV 25/1 mg/kg
# Method: therapeutic potential in acute myeloid leukemia
# sheet for further calculations.
# Three male Beagle dogs were administered
# PIM2 = PIM2 (Homo sapiens, UniProt Q9P1W9); assay: KINOMEscan Kd (DiscoverX); assay type: binding
# MV-4-11 = assay: MTS viability assay, 72 h; details: Homo sapiens, MV4-11, 72 h
# Method: (§3) On the same day, 50 μL of medium containing tested inhibitor was added to the wells. Each compound was tested at 8 concentrations, in triplicates. As a negative control, the medium containing 0.1% DMSO was used. […] Staurosporine was used at 10 μM as a positive control. One the day of drug addition, basal signal from untreated cells was measured from in triplicate to determine time zero (T0). […] GI50 and LC50 values were extrapolated from a variable (four-parameter) dose-response curve fitted in GraphPad Prism.
# EOL-1 = assay: MTS viability assay, 72 h; details: Homo sapiens, EOL1, 72 h
# Method: as §2
# FLT3 (ITD) = FLT3 (ITD) (Homo sapiens, UniProt P36888, ITD); assay: KINOMEscan Kd, specific screen against FLT3 mutants; assay type: binding
# Method: (§1) Dissociation constants (Kd) and inhibition levels of FLT3 mutants were measured at DiscoverX using the KINOMEscan^TM Profiling Service (KdELECT).
# FLT3 (ITD, D835V) = FLT3 (ITD, D835V) (Homo sapiens, UniProt P36888, D835V/ITD); assay: as above; assay type: binding
# Method: as §1
# FLT3 (D835H) = FLT3 (D835H) (Homo sapiens, UniProt P36888, D835H); assay: as above; assay type: binding
# Method: as §1
# FLT3 (D835Y) = FLT3 (D835Y) (Homo sapiens, UniProt P36888, D835Y); assay: as above; assay type: binding
# Method: as §1
# FLT3 (K663Q) = FLT3 (K663Q) (Homo sapiens, UniProt P36888, K663Q); assay: as above; assay type: binding
# Method: as §1
# FLT3 (R834Q) = FLT3 (R834Q) (Homo sapiens, UniProt P36888, R834Q); assay: as above; assay type: binding
# Method: as §1
# FLT3 (N841I) = FLT3 (N841I) (Homo sapiens, UniProt P36888, N841I); assay: as above; assay type: binding
# Method: as §1
# FLT3 (ITD, F691L) = FLT3 (ITD, F691L) (Homo sapiens, UniProt P36888, F691L/ITD); assay: as above; assay type: binding
# Method: as §1
# FLT3 (D835V) = FLT3 (D835V) (Homo sapiens, UniProt P36888, D835V); assay: as above; assay type: binding
# Method: as §1
# SKM-1 = assay: MTS viability assay, 72 h; details: Homo sapiens, SKM-1, 72 h
# Method: as §3
# PL-21 = assay: MTS viability assay, 72 h; details: PL-21, 72 h
# Method: as §2
# RS4;11 = assay: MTS viability assay, 72 h; details: Homo sapiens, RS4-11, 72 h
# Method: as §2
# [5] = system: MOLM-14 cells transduced with FLT3 TKD point mutations (D835Y, D835V and F691L); assay: MTS viability of MOLM-14 cells with FLT3 alleles; assay type: cell-based; details: 72 h
# Chain of PIM2 (Q9P1W9 whole entry): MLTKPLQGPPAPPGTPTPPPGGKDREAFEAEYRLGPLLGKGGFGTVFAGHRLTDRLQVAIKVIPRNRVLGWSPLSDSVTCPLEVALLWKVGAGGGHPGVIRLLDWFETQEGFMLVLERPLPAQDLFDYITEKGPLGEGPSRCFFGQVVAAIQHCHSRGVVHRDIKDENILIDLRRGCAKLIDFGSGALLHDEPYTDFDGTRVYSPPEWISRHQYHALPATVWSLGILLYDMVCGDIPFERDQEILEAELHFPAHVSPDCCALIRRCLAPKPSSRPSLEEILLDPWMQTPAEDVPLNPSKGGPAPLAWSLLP
compound,measurement,setting,value
"CC(C)n1c(C2CCNCC2)nc2c([N+](=O)[O-])c(Br)c(Br)cc21 [SEL24-B489, 5,6-dibromo-4-nitro-2-(piperidin-4-yl)-1-(propan-2-yl)-1H-1,3-benzodiazole]",half-life at 1 µM,[1],21.8 h
same,Kd,PIM3,3 nM
same,time after the last dose that Phospho-S6 remained suppressed,[2],up to 8 hours
same,GI50,SKNO-1,18 nM
same,IC50,[3],195 nM
same,TGI,"MOLM-16 (FLT3-WT) tumor; MOLM-16, 25 mg/kg BID",~ 100%
same,TGI,"MOLM-16 (FLT3-WT) tumor; MOLM-16, 50 mg/kg EOD",79%
same,TGI,"MOLM-16 (FLT3-WT) tumor; MOLM-16, 50 mg/kg QD",~ 100%
same,Cmax,"[4]; Sprague Dawley, 25 mg/kg",913 ng/mL
same,Tmax,"[4]; Sprague Dawley, 25 mg/kg",6.7 h
same,AUC(0-t),[4]; Sprague Dawley,19600 ng·h/mL
same,half-life,[4]; Sprague Dawley,10 h
same,bioavailability,"[4]; Sprague-Dawley, 25 mg/kg, read-out: F (bioavailability)",52%
same,Kd,PIM2,2 nM
same,GI50,MV-4-11,20 nM
same,CC50,MV-4-11; read-out: LC50,> 10000 nM
same,GI50,EOL-1,266 nM
same,Kd,FLT3 (ITD),12 nM
same,Kd,"FLT3 (ITD, D835V)",2.8 nM
same,Kd,FLT3 (D835H),37 nM
same,Kd,FLT3 (D835Y),16 nM
same,Kd,FLT3 (K663Q),530 nM
same,Kd,FLT3 (R834Q),3200 nM
same,Kd,FLT3 (N841I),150 nM
same,Kd,"FLT3 (ITD, F691L)",10 nM
same,Kd,FLT3 (D835V),11 nM
same,GI50,SKM-1,732 nM
same,CC50,SKM-1; read-out: LC50,7770 nM
same,GI50,PL-21,1710 nM
same,GI50,RS4;11,190 nM
same,CC50,RS4;11; read-out: LC50,2160 nM
same,viability of MOLM-14 cells with FLT3-TKD mutants versus FLT3-ITD or parental cells,[5],neither of the FLT3 TKD point mutations decreased the cellular sensitivity

# — paper PMC5908295 (Oncotarget, 2018)
